Reference: US20140356325A1, “NOVEL 2'-C-METHYL NUCLEOSIDE DERIVATIVE COMPOUNDS” (Ligand Pharmaceuticals Incorporated, priority 2012, published 2014)

Experiments:
[1] = tested on: purine salvage pathway enzymes such as adenosine deaminase and purine nucleoside phosphorylase; conditions: cited from earlier work
[2] = tested on: HCV replication in human liver tissue; experiment: HCV-infected human liver slice assay; assay type: cell-based
Procedure: Inhibition of HCV replication in human liver tissue is evaluated using the following assay. Procurement. Liver from a brain-dead HCV antibody-positive human patient is perfused with ice-cold Viaspan (Dupont Pharmaceutical) preservation solution and received on ice in Viaspan. Precision-cut liver slices of ˜200-250 μm thickness and […] are prepared and cultured in Waymouth's cell culture medium (Gibco, Inc.) that is supplemented with 10% fetal bovine serum and 10 mL/L Fungi-Bact at 37° C., and gassed with carbogen (95% O2, 5% CO2) at 0.75 liters/min. Tissue slices are maintained in culture for 72 h. Cell culture medium containing test compound in solution is changed on a daily basis. At appropriate times of liver slice incubation, liver slices and medium are collected for analysis of HCV RNA (tissue and medium) and nucleotide levels (NTP). All collected media and tissue slices are maintained in liquid N2 until analysis. Medium and tissue samples are analyzed for HCV RNA levels according to published procedures (Bonacini et. al., 1999) which utilize an automated, multicycle, polymerase chain reaction (PCR) based technique. This assay has a lower limit of detection for HCV RNA of 100 viral copies/ml.

melting point | SMILES | further results
 | C[C@@]1(O)[C@H](O)[C@@H](CO)O[C@H]1n1cnc2c(N)ncnc21 [2′-C-methyladenosine] | resistance to metabolism by purine salvage pathway enzymes [1]: increased resistance to metabolism
 | C[C@@]1(O)[C@H](O)[C@@H](CO)O[C@H]1n1cnc2c(=O)[nH]c(N)nc21 [2′-C-methylguanosine] | HCV RNA levels present in the liver slice culture media ([2]; relative to control, untreated slices, following incubation): decreased; amount of HCV RNA released into the culture medium ([2]; treatment for 72 h, medium from 48-72 h): decreases
80 to 82 °C | CCCCCOc1nc(N)nc2c1ncn2[C@@H]1O[C@H](CO[P@@]2(=O)OCC[C@@H](c3cccc(Cl)c3)O2)[C@H]2OC(=O)O[C@]21C [Compound 150, 2(R)-(2-Amino-6-pentyloxy-9(H)-purinyl)-4(R)-(4(S)-(3-chlorophenyl)-2-oxo-1,3,2-dioxaphosphorinan-2(R)-yloxymethyl)-1(R)-methyl-7-oxo-3,6,8-trioxa-cis-bicyclo[3.3.0]octane] | 
96 to 98 °C | CCOc1nc(N)nc2c1ncn2[C@@H]1O[C@H](CO[P@@]2(=O)OCC[C@@H](c3cc(F)cc(F)c3)O2)[C@H]2OC(=O)O[C@]21C [Compound 126, 2(R)-(2-Amino-6-ethoxy-9(H)-purinyl)-4(R)-(4(S)-(3,5-difluorophenyl)-2-oxo-1,3,2-dioxaphosphorinan-2(R)-yloxymethyl)-1(R)-methyl-7-oxo-3,6,8-trioxa-cis-bicyclo[3.3.0]octane] | 
93 to 96 °C | COC(C)(C)CCOc1nc(N)nc2c1ncn2[C@@H]1O[C@H](CO[P@@]2(=O)OCC[C@@H](c3cccc(Cl)c3)O2)[C@H]2OC(=O)O[C@]21C [Compound 138, 2(R)-(2-Amino-6-(3-methyl-3-methoxybutyloxy)-9 (H)-purinyl)-4(R)-(4(S)-(3-chlorophenyl)-2-oxo-1,3,2-dioxaphosphorinan-2(R)-yloxymethyl)-1(R)-methyl-7-oxo-3,6,8-trioxa-cis-bicyclo[3.3.0]octane] | 
125 to 130 °C | COc1nc(N)nc2c1ncn2[C@@H]1O[C@H](CO[P@@]2(=O)OCC[C@@H](c3cccc(Cl)c3)O2)[C@H]2OC(=O)O[C@]21C [Compound 119, 2(R)-(2-Amino-6-methoxy-9(H)-purinyl)-4(R)-(4(S)-(3-chlorophenyl)-2-oxo-1,3,2-dioxaphosphorinan-2(R)-yloxymethyl)-1(R)-methyl-7-oxo-3,6,8-trioxa-cis-bicyclo[3.3.0]octane] | 
